Results published in patent US20230310390A1, “INHIBITORS OF SHORT-CHAIN DEHYDROGENASE ACTIVITY FOR TREATING NEURODEGENERATION” (CASE WESTERN RESERVE UNIVERSITY, priority 2020, published 2023).
Where two headings read alike, the source gives them in different places.

Columns and labels:
[1] = test system: C57/B6 mice exposed to TBI; experiment: Silver staining for axon degeneration after TBI; format: in vivo; settings: 3 weeks after TBI, 5 mg/kg twice daily started 24 hours after injury; 5 mg/kg
Protocol: 8 week old C57/B6 mice were exposed to sham-injury or TBI. Twice daily treatment with 5 mg/kg (+)-SW033291, 5 mg/kg (−)-SW033291, or vehicle was started 24 hours after injury and continued throughout the duration of the experiment. Animals were sacrificed by transcardial perfusion 3 weeks after TBI or sham-injury, and fixed brains were processed for silver staining. […] Individual mouse data points are shown on the graph. Data was analyzed using two-way repeated measures ANOVA; * p<0.05, ** p<0.01. All data is mean±SEM.

[2] = cited from earlier work
neurons = settings: in vitro, activation of the EP2 receptors; cited from earlier work

## CCCC[S+]([O-])c1sc2nc(-c3cccs3)cc(-c3ccccc3)c2c1N (single isomer, unassigned; (-)) [(−)-SW033291, reference compound]
[1]
  silver staining (axon degeneration): protection was not noted

## CCCCC[C@H](O)/C=C/[C@H]1[C@H](O)CC(=O)[C@@H]1C/C=C\CCCC(=O)O [PGE2, prostaglandin E2]
[2]; following intravenous injection
  half-life: less than 1 min.
[2]; in the circulatory system
  half-life: approximately 30 sec.

## CCCC1([C@H](O)C/C=C/[C@H]2[C@H](O)CC(=O)[C@@H]2CCCCCCC(=O)OC)CCC1 [butaprost]
neurons
  protection of neurons from amyloid peptide neurotoxicity: protected neurons from amyloid 0-peptide neurotoxicity in vitro
